Measurements reported in US20240307386A1 (priority 2018, published 2024).
pKi: −log10 of the molar value.

Legend:
[1] = system: AMPA receptor currents in mPFC neurons; assay: AMPA-induced currents in rat mPFC slices, whole-cell patch clamp; type: cell-based
From the text: (§1) Combined administration of the antipsychotic, olanzapine, and the SSRI, fluoxetine, similarly induces rapid antidepressant activity in humans and animals (Tohen et al., 2010); likewise, combined application of olanzapine and fluoxetine is required to induce AMPA receptor currents in vitro.

5-HT2 receptor = assay: DOI-induced head twitch model in mice; type: in vivo; conditions: p.o., 0.5 hr before s.c. DOI
[2] = 40-minute infusion, total dose 0.5 mg/kg; after 24 hours; cited from earlier work
mTORC1 signaling pathway = mTORC1 signaling pathway in mPFC of adult rats, dose range study; type: in vivo, rat; conditions: Formula A 1 to 8 mg/kg i.p.; ketamine 30 mg/kg; 60 min, 90 min or 24 hours
mTOR (at Serine 2448) = assay: Phosphorylation of mTOR pathway proteins in rat PFC: mTOR; type: in vivo; conditions: one i.p. injection; ketamine 30 mg/kg, Formula A 3 mg/kg
[3] = system: P70s6 kinase (at Threonine 389); assay: Phosphorylation of mTOR pathway proteins in rat PFC: P70s6 kinase; type: in vivo; conditions: over 24 hours after one i.p. injection; ketamine 30 mg/kg, Formula A 3 mg/kg
AKT (at Threonine 308) = assay: Phosphorylation of mTOR pathway proteins in rat PFC: AKT; type: in vivo; conditions: 1 hour and 24 hours after one i.p. injection; ketamine 30 mg/kg, Formula A 3 mg/kg
[4] = system: NMDA receptor currents in mPFC neurons; assay: NMDA-induced currents in rat mPFC slices, whole-cell patch clamp; type: cell-based
From the text: as §1

5-HT2A = 5-HT2A (Homo sapiens (Human), UniProt P28223)
D2 = D2 (Homo sapiens (Human), UniProt P14416)
[5] = Clinical studies in patients with acute exacerbated schizophrenia; type: in vivo, human; conditions: 60 mg P.O. once daily, up to 28 days
From the text: Social avoidance can be a critical and debilitating symptom in patients suffering from anxiety disorders, especially social anxiety disorder, as well as in patients suffering from traumatic anxiety disorders. Social avoidance is often one of the key determinants of whether a person with a severe anxiety disorder is capable of maintaining familial relationships or employment relationships. […] Negative symptoms of schizophrenia can be divided into two categories: emotional experience (e.g., emotional withdrawal, passive social withdrawal, active social avoidance) and emotional expression (e.g., blunted effect, poor rapport, lack of spontancity, and motor retardation). […] These are the symptoms that are most highly correlated with interpersonal functioning.

[6] = bath applied 3-100 nM, 5 min later

Molecule `CNCCC(Oc1ccc(C(F)(F)F)cc1)c1ccccc1` (stereo not shown) [fluoxetine] has an activity at 0.1 µM ([1]; Rattus norvegicus, Neuron, 100 nM fluoxetine, read-out: AMPA-induced current, % of control) of roughly 90%.

In the case of `O=C1CN2c3c(cccc3[C@@H]3CN(CCCOc4ccc(F)cc4)CC[C@@H]32)N1` [Example 1, (6bR,10aS)-8-(3-(4-fluorophenoxy)propyl)-6b,7,8,9,10,10a-hexahydro-1H-pyrido[3′,4′:4,5]pyrrolo[1,2,3-de]quinoxalin-2(3H)-one], the “EC50 for reducing DOI-induced head twitches” value (5-HT2 receptor) was 0.44 mg/kg.

For `CNC1(c2ccccc2Cl)CCCCC1=O` (stereo not shown) [ketamine], the “ratings on the Hamilton Depression Rating Scale (HDRS) compared to placebo” value [2] is listed as “significantly improved”, the “activation of mTORC1 signaling pathway in mPFC (p-Akt thr308, p-P70S6K)” value (mTORC1 signaling pathway) is listed as “rapidly activates the mTORC1 signaling pathway” and the “change in mTOR phosphorylation” value (mTOR (at Serine 2448)) is listed as “Neither ketamine nor the Compound of Formula A results in a change”. For the same molecule, the p70s6K phosphorylation [3] was “transiently increase” and the “increase in phosphorylation of AKT at thr308” value (AKT (at Threonine 308)) was roughly 50%.

In the case of `Cc1cc2c(s1)Nc1ccccc1N=C2N1CCN(C)CC1` [olanzapine], the activity at 0.003 µM ([1]; Rattus norvegicus, Neuron, 3 nM olanzapine alone, read-out: AMPA-induced current, % of control) was roughly 100%.

For `CN1CCN2c3c(cccc31)[C@@H]1CN(CCCC(=O)c3ccc(F)cc3)CC[C@@H]12` [Formula A, lumateperone], the “AMPA-induced currents compared to control” value ([1]; 30 nM, alone and with SCH 23390 (1 μM)) was “Substantially the same results”, the AMPA currents [1, 6] was “enhanced” and the “activation of mTORC1 signaling pathway in mPFC (p-Akt thr308, p-P70S6K)” value (mTORC1 signaling pathway) was “rapidly activates the mTORC1 signaling pathway”. For the same molecule, the “change in mTOR phosphorylation” value (mTOR (at Serine 2448)) was “Neither ketamine nor the Compound of Formula A results in a change”, the p70s6K phosphorylation [3] was “progressively increases” and the “NMDA-induced currents compared to control” value ([4]; 30 nM) was roughly 150%. For the same molecule, the NMDA currents [4, 6] was “enhanced”, the pKi (5-HT2A) was 8.00 and the “increase in phosphorylation of AKT at thr308” value (AKT (at Threonine 308)) was roughly 50%. For the same molecule, the pKi (D2) was 7.31 and the “symptoms of emotional experience compared to placebo” value [5] was “significant and unexpected improvement”.
